From patent US20120277265A1, “NOVEL POLYQUINOLINE DERIVATIVES AND THE THERAPEUTIC USE THEREOF” (CENTRE NATIONAL DE LA RECHERCHE SCIENTIFIQUE (C.N.R.S.), priority 2005, published 2012)

What was measured:
[1] = biological target: T1, Aβ1-42 (Homo sapiens, UniProt P05067); assay: Inhibition of the precipitation of Aβ1-42 by the addition of ligand (Micro BCA assay of soluble/aggregated peptide); type: biochemical; conditions: Aβ1-42 5 μM, pH 7.4; for CuCl2 % soluble Aβ: 20 μM CuCl2, 1 h 37° C. then 1 h with 200 μM ligand; for FeCl3 % soluble Aβ: 20 μM FeCl3, 1 h 37° C. then 1 h with 200 μM ligand; for ZnCl2 % soluble Aβ: 20 μM ZnCl2, 1 h 37° C. then 1 h with 200 μM ligand; for without metal % soluble Aβ: no metal salt, 1 h 37° C. then 1 h with 200 μM ligand
T1 construct: The β-amyloid peptide Aβ1-42 (Aβ1-42) was synthesised, purified (to a purity greater than 95%); made in house; host or cells: chemical peptide synthesis (no expression host)
Description: After a further hour of incubation, the reaction mixture is centrifuged.
Before use, the water [of Milli-Q Millipore quality] and all buffer solutions were treated on Chelex-100 resin (Biorad) (5 mg/ml) and filtered through 0.2 μm filters (Whatman) to remove potential traces of metal ions or particles.
Working solutions of the peptide were prepared by solubilising 1 mg of lyophilised peptide in 500 μl of water and 500 μl of an aqueous NaOH solution pH=12.0, while stirring in a Thermomixer Comfort (Eppendorf). The peptide preparations are subsequently centrifuged for 10 minutes at 9,000 rpm and the supernatant is used as an “Aβ stock” solution. The concentration of peptide in the “Aβ stock” is determined immediately by colorimetric assay using a Micro BCA Protein Assays kit (Pierce) from standard ranges produced using known amounts of bovine serum albumin (BSA) then the Aβ1-42 peptide solution is aliquoted and frozen rapidly in liquid nitrogen prior to being stored at −20° C. until being used.
Salts are generated by adding one hydrochloric acid equivalent per nitrogen group equivalent of the ligand dissolved in DMSO. After evaporation of the solvent, these salts are dissolved at the desired concentration with DMSO and kept at −20° C. until they are used.
The protocol was established from works by: C. S. Atwood et al., J. Neurochem. […] The final concentrations are given. 500 μl of Aβ1-42 (5 μM is set to aggregate in 20 mM Tris-HCl buffer containing 150 mM NaCl (pH=7.4) for 1 hour at 37° C. while stirring at 1,400 rpm in the absence or presence of metal ions: CuCl2, ZnCl2 or FeCl3 (20 μM). Then 50 pi of ligand to be tested (200 μM) dissolved in DMSO are added and the samples are incubated for 1 further hour at 37° C. while stirring at 1,400 rpm. The samples without ligand also receive 50 μl of DMSO. The samples (final volume=550 μ) are subsequently centrifuged for 20 min at 9,000 rpm, and 500 μl of supernatant are removed. The tube containing the precipitation pellet then receives 450 μl of assay buffer/DMSO mixture (91/9, v/v). […] Quantification is carried out on the basis of standard BSA ranges. The amounts of Aβ1-42 actually contained in the pellet and the supernatant are obtained after a correction due to the presence of a residual portion of supernatant in the pellet-containing fraction.
For the control experiments with derivatives comprising a single quinoline residue, […] of ligand were added because complexes of type L2Cu are conventionally used in these cases.

[2] = Determination of log D7.4 (1-octanol / Tris-HCl buffer); type: physicochemical; conditions: 1-octanol / 20 mM Tris-HCl buffer containing 150 mM NaCl (pH = 7.4) (1/1, v/v)
Description: The ligand (2.0 mg) is dissolved in 2 ml of 1-octanol then 2 ml of 20 mM Tris-HCl buffer, pH=7.4 containing 150 mM NaCl are added. After mixing in a vortex for 3 min at ambient temperature, followed by centrifugation for 5 min at 9,000 rpm, the concentration of the ligand in each phase is determined by UV-visible spectrophotometry. The 1-octanol fractions are thus redivided until reproducible values of coefficient of division of obtained. This coefficient is expressed as the decimal logarithm of [(the concentration of ligand contained in the 1-octanol phase)/(the concentration of ligand contained in the buffered aqueous phase)]=log D7.4. Measurements were taken three times.

[3] = tested on: copper complexes of Aβ1-42 peptide; assay: Stability of H2O2 during the H2O2 production inhibition experiments (known amount of H2O2 added); type: biochemical; conditions: for theoretical value of H2O2 if there is no degradation (in parentheses): ascorbate, ligand; for H2O2 assayed: no Aβ1-42, Cu(II) 0.4 μM, ascorbate 10 μM, ligand 0.4 μM
Description: (§1) The final concentrations are given. The reactions were carried out in the dark in mM sodium phosphate buffer (pH=7.4). Aβ1-42 (0.2 μM) and CuCl2 (0.4 μM) were pre-incubated for 1 hour at 37° C. while stirring at 1,400 rpm in 375 μl of buffer. Then 2 μl of a solution of ligand to be investigated (0.2; 0.4 or 0.8 μM) in DMSO were added. After incubation for a further hour, 2 μl of an aqueous sodium ascorbate solution (10 μM) were added and incubation was continued for 5 min while stirring. The amount of H2O2 produced is then quantified using an Amplex Red H2O2/HRP Assay Kit (Molecular Probes) while adding a volume of assay reagent to the samples, then incubating them for 1 hour at 37° C. while stirring at 500 rpm. H2O2 is then detected by spectrophotometry at 563 nm. Quantification is carried out on the basis of standard curves obtained with known amounts of H2O2.
(§2) Experiments were also carried out in the presence of a known amount of H2O2, added just before or just after the addition of sodium ascorbate, in order to investigate the stability of H2O2 under the experimental conditions employed.

[4] = biological target: T2, copper complexes of Aβ1-42 peptide (Homo sapiens, UniProt P05067); assay: as above; type: biochemical; conditions: Aβ1-42 0.2 μM, Cu(II) 0.4 μM, ascorbate 10 μM, ligand 0.4 μM
T2 construct: The β-amyloid peptide Aβ1-42 (Aβ1-42) was synthesised, purified (to a purity greater than 95%); made in house; host or cells: chemical peptide synthesis (no expression host)
Description: as §1, §2

[5] = Hydrogen peroxide produced by Aβ1-42 in the presence of CuCl2, ascorbate, air and ligand (Amplex Red H2O2/HRP); type: biochemical; conditions: CuCl2 0.4 μM, ascorbate 10 μM, air
Description: (§3) FIG. 11: Variation in H2O2 production by copper complexes of Aβ1-42 peptide as a function of the Cu(II)/Aβ stoichiometry. Experiments are carried out for 5 minutes in a sodium phosphate buffer (pH=7.4) in the presence 0.4 μM CuCl2, 10 μM ascorbate and air with or without 0.4 μM of 3 or 7. The H2O2 released is quantified by means of an Amplex-Red H2O2/HRP Assay kit.
as §1, with “H2O2 is then detected by spectrophotometry at 563 nm.” left out
(§4) The figures in the tables correspond to the amount of H2O2 (expressed in nanomoles) added using an Amplex Red H2O2/HRP Assay kit.

[6] = biological target: T2, copper complexes of Aβ1-42 peptide; assay: as above; type: biochemical; conditions: CuCl2 0.4 μM, ascorbate 10 μM, air
Description: as §3
as §1, with “H2O2 is then detected by spectrophotometry at 563 nm.” left out
as §4

[7] = 3.0 nanomoles H2O2 added just before the ascorbate

T2 sequence (P05067 672-713 limits assumed, one chain of several): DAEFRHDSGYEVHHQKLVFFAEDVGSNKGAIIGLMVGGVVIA
T1 sequence (P05067 672-713): as the sequence (P05067 672-713 limits assumed, one chain of several) above

CuCl2 % soluble Aβ [1] [%]	FeCl3 % soluble Aβ [1] [%]	ZnCl2 % soluble Aβ [1] [%]	without metal % soluble Aβ [1] [%]	logD at 3 min [2]	H2O2 assayed [4, 7] [nmol]	H2O2 assayed ([4]; no H2O2 added) [nmol]	amount of H2O2, 0.2 μM Aβ1-42 Cu/Aβ = 2 ([6]; ligand 1 eq/Cu(II) (0.4 μM)) [nmol]	amount of H2O2, 0.5 μM Aβ1-42 Cu/Aβ = 0.75 ([6]; ligand 1 eq/Cu(II) (0.4 μM)) [nmol]	Compound	theoretical value of H2O2 if there is no degradation (in parentheses) ([3]; Aβ1-42 0.2 μM, Cu(II), 3.0 nanomoles H2O2 added just before the ascorbate) [nmol]	amount of H2O2, without Aβ1-42 ([5]; ligand 1 eq/Cu(II) (0.4 μM)) [nmol]	amount of H2O2, without Aβ1-42 ([5]; ligand 2 eq/Cu(II)) [nmol]	amount of H2O2, 0.2 μM Aβ1-42 Cu/Aβ = 2 ([6]; ligand 2 eq/Cu(II)) [nmol]	amount of H2O2, 0.5 μM Aβ1-42 Cu/Aβ = 0.75 ([6]; ligand 2 eq/Cu(II)) [nmol]	H2O2 assayed [3, 7]	H2O2 assayed ([3]; no H2O2 added) [nmol]	theoretical value of H2O2 if there is no degradation (in parentheses) ([3]; no Aβ1-42, Cu(II), 3.0 nanomoles H2O2 added just before the ascorbate)
45 ± 3	51	57	79 ± 3	1.8 ± 0.1	4.9	1.99 ± 0.11	1.99	0.78	Cc1ccc2cccc(NCCNc3cccc4ccc(C)nc34)c2n1 [Compound 14, N,N′-bis(2-methyl-8-quinolinyl)-1,2-ethanediamine]	5.0	0.74	–	–	–	–	–	–
48 ± 3	44 ± 6	50	53	–	–	–	0.70	–	COc1ccc2ccc(Cc3ccc4ccc(OC)c(O)c4n3)nc2c1O.Cl.Cl [Compound 16, 2,2′-(methanediyl)-bis(7-methyloxy-8-hydroxy-2-quinolinium) dichloride]	–	–	–	–	–	–	–	–
48	43	45	48	3.7 ± 0.1	–	–	–	–	Oc1cccc2ccc(CC(Cc3ccc4cccc(O)c4n3)c3ccc4cccc(O)c4n3)nc12 [Compound 11, 2,2′,2″-(1,2,3-Propanetriyl)-tris(8-hydroxyquinoline)]	–	–	–	–	–	–	–	–
35	42	23	72	2 ± 0.1	–	–	1.02	–	c1cnc2c(Oc3cccc4cccnc34)cccc2c1 [Compound 15, 8,8′-Oxydiquinoline]	–	–	–	–	–	–	–	–
21	38	21	64	2.6 ± 0.1	–	–	0.62	0.47	O=C(Nc1cccc2cccnc12)c1cccc2cccnc12 [Compound 24, N-8-quinolinyl-8-quinoline carboxamide]	–	0.49	–	–	–	–	–	–
46 ± 3	49	62 ± 5	66	3 ± 0.1	–	–	0.47	0.45	O=C(Nc1ccc2cccc(O)c2n1)c1ccc2cccc(O)c2n1 [Compound 18, 8-hydroxy-N-(8-hydroxy-2-quinolinyl)-2-quinolinecarboxamide]	–	0.47	–	–	–	3.5 (3.5) nanomoles	0.47	3.5 (3.5) nanomoles

Continued, compound first:

Compound	CuCl2 % soluble Aβ [1] [%]	FeCl3 % soluble Aβ [1] [%]	ZnCl2 % soluble Aβ [1] [%]	without metal % soluble Aβ [1] [%]	logD at 3 min [2]	H2O2 assayed [4, 7] [nmol]	H2O2 assayed ([4]; no H2O2 added) [nmol]	amount of H2O2, 0.2 μM Aβ1-42 Cu/Aβ = 2 ([6]; ligand 1 eq/Cu(II) (0.4 μM)) [nmol]	amount of H2O2, 0.5 μM Aβ1-42 Cu/Aβ = 0.75 ([6]; ligand 1 eq/Cu(II) (0.4 μM)) [nmol]	theoretical value of H2O2 if there is no degradation (in parentheses) ([3]; Aβ1-42 0.2 μM, Cu(II), 3.0 nanomoles H2O2 added just before the ascorbate) [nmol]	amount of H2O2, without Aβ1-42 ([5]; ligand 1 eq/Cu(II) (0.4 μM)) [nmol]	amount of H2O2, without Aβ1-42 ([5]; ligand 2 eq/Cu(II)) [nmol]	amount of H2O2, 0.2 μM Aβ1-42 Cu/Aβ = 2 ([6]; ligand 2 eq/Cu(II)) [nmol]	amount of H2O2, 0.5 μM Aβ1-42 Cu/Aβ = 0.75 ([6]; ligand 2 eq/Cu(II)) [nmol]	H2O2 assayed [3, 7]	H2O2 assayed ([3]; no H2O2 added) [nmol]	theoretical value of H2O2 if there is no degradation (in parentheses) ([3]; no Aβ1-42, Cu(II), 3.0 nanomoles H2O2 added just before the ascorbate)
Nc1cccc2cccnc12 [8-aminoquinoline, reference compound]	40	58	67	66 ± 3	1.9 ± 0.1	–	–	–	–	–	–	–	–	–	–	–	–
Oc1cccc2ccc(Cc3ccc4cccc(O)c4n3)nc12 [Compound 1, 2,2′-methanediyl-bis(8-hydroxyquinoline)]	60 ± 5	61	63	63 ± 4	3.3 ± 0.1	–	–	0.75 ± 0.11	0.76	–	0.54	–	–	–	–	–	–
Cc1ccc2cccc(O)c2n1 [8-hydroxyquinaldine, reference compound]	52	51	62	69	2.4 ± 0.1	–	–	–	–	–	–	–	–	–	–	–	–
Oc1cccc2cccnc12 [8-hydroxyquinoline, reference compound]	70 ± 3	80	88	85	2.1 ± 0.1	–	–	0.69	0.75	–	2.02	0.62	0.71 ± 0.05	0.62	–	–	–
Oc1ccc(Cl)c2ccc(Cc3ccc4c(Cl)ccc(O)c4n3)nc12 [Compound 2, 2,2′-methanediyl-bis(5-chloro-8-hydroxyquinoline)]	45 ± 5	58	57	66	3.5 ± 0.1	–	–	0.80 ± 0.23	0.61	–	0.56	–	–	–	–	–	–
